One test relates to 5-HT2C syndrome. The experiment in a line: 5-HT2C syndrome in rats (splayed limbs, hunched posture, retro-pulsion). It counts as in vivo. The conditions noted are these: 30 mg/kg s.c. The procedure:
The efficacy of 5-HT2C agonists was assessed for ability to induce a specific syndrome.
The 5-HT2C syndrome is a rapid screening method to assess the in vivo efficacy of 5-HT2C agonists through their ability to induce three specific behaviours in rats. The animals are dosed with either a positive control (mCPP), test compound or vehicle, either sub-cutaneously or p.o. The animals are observed on an open bench, typically 30, 60 and 180 minutes and the degree of syndrome is assessed over a two minute period on a scale of 0-3 depending on the presence and severity of splayed limbs, hunched posture and retro-pulsion, the three specific behaviours which constitute the syndrome. Data is analysed using Kruskal-Wallis Analysis of Variance followed with appropriate post-hoc tests. All statistical analysis are conducted using Excel version 7.0 (Microsoft Corp.) and Statistica version 5.0 (Statsoft, Inc.).

Test [1] concerns the target T1, 5-HT2A receptor (Homo sapiens, UniProt P28223). Put plainly: Binding to 5-HT2A receptor, [125I]-DOI radioligand, CHO cell line. Details: expressed in transfected cells; host or cells: CHO cell line. The method, then:
(§1) 1. Binding to Serotonin Receptors
(§2) The binding of compounds of formula (I) to serotonin receptors was determined in vitro by standard methods. The preparations were investigated in accordance with the assays given hereinafter.
Method (c): For the binding to the 5-HT2A receptor the 5-HT2A receptors were radiolabeled with [^125I]-DOI. The affinity of the compounds for 5-HT2A receptors in a CHO cell line was determined according to the procedure of D. J. McKenna and S. J. Peroutka, J. Neurosci., 1989, 9, 3482-90.

For test [2], the target named is T2, 5-HT2C receptor (Homo sapiens, UniProt P28335).
T2 sequence (P28335 33-458): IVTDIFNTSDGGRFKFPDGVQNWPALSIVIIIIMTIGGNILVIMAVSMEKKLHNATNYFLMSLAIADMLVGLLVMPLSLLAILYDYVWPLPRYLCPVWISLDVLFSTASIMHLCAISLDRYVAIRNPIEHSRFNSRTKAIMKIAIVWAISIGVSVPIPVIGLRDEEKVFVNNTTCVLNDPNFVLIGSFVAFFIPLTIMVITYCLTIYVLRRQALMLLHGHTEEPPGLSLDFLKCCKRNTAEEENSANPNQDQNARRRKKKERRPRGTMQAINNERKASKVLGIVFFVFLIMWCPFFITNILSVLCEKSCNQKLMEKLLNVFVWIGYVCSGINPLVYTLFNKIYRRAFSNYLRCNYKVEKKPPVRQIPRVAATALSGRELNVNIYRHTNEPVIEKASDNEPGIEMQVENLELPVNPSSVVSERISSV
The experiment in a line: Binding to 5-HT2C receptor, [3H]-5-HT radioligand, CHO cell line. Details: expressed in transfected cells; host or cells: CHO cell line. The method, then:
as §1, §2
Method (a): For the binding to the 5-HT2C receptor the 5-HT2C receptors were radiolabeled with [^3H]-5-HT. The affinity of the compounds for 5-HT2C receptors in a CHO cell line was determined according to the procedure of D. Hoyer, G. Engel and H. O. Kalkman, European J. Pharmacol., 1985, 118, 13-23.

In another test the target is T3, human 5-HT2B receptors (Homo sapiens, UniProt P41595).
T3 construct: expressed in transfected cells; host or cells: CHO cell line
T3 sequence (P41595 whole entry): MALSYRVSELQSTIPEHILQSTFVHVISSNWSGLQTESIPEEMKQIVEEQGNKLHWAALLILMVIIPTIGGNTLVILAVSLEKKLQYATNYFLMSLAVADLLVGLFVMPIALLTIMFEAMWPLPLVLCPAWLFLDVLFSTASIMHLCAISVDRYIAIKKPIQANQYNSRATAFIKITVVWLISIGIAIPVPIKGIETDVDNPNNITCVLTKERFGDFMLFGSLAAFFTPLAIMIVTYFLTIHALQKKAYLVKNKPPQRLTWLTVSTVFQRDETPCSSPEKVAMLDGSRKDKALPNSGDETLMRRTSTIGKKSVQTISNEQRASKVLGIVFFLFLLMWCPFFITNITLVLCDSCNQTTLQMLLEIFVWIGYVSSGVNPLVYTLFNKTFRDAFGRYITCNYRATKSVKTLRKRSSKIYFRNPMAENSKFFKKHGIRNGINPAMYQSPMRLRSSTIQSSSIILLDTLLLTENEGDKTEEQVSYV
Put plainly: Binding to 5-HT2B receptor, [3H]-5-HT radioligand, CHO cell line. The method, then: as §1, §2
Method (b): For the binding to the 5-HT2B receptor the 5-HT2B receptors were radiolabeled with [^3H]-5-HT. The affinity of the compounds for human 5-HT2B receptors in a CHO cell line was determined according to the procedure of K. Schmnuck, C. Ullmer, P. Engels and H. Lubbert, FEBS Lett., 1994, 342, 85-90.

The target of test [3] is T2, 5-HT2C receptor. The experiment in a line: Functional activity, FLIPR calcium assay in CHO cells expressing human 5-HT2C. More on the design: expressed in transfected cells; host or cells: CHO cells. It counts as cell-based. The following applies: for Emax: CHO, read-out: h5-HT2C Relative Efficacy (%). The method, then: (§3) The functional activity of compounds of formula (I) was assayed using a Fluorimetric Imaging Plate reader (FLIPR). CHO cells expressing the human 5-HT2C or human 5-HT2A receptors were counted and plated into standard 96 well microtitre plates on the day before testing to give a confluent monolayer. The cells were then dye loaded with the calcium sensitive dye, Fluo-3-AM. Unincorporated dye was removed using an automated cell washer to leave a total volume of 100 μL/well of assay buffer (Hanks balanced salt solution containing 20 mM Hepes and 2.5 mM probenecid). The drug (dissolved in 50 μL of the assay buffer) was added at a rate of 70 μL/sec to each well of the FLIPR 96 well plate during fluorescence measurements. The measurements were taken at 1 sec intervals and the maximum fluorescent signal was measured (approx 10-15 secs after drug addition) and compared with the response produced by 10 μM 5-HT (defined as 100%) to which it was expressed as a percentage response (relative efficacy). Dose response curves were constructed using Graphpad Prism (Graph Software Inc.).

The target of test [4] is T1, 5-HT2A receptor. Put plainly: Functional activity, FLIPR calcium assay in CHO cells expressing human 5-HT2A. It counts as cell-based. Details: expressed in transfected cells; host or cells: CHO cells. The following applies: for Emax: CHO, read-out: h5-HT2A Relative Efficacy (%). The procedure: as §3
In test [5] the test system is 5-HT2C receptor. The conditions noted are these: cited from earlier work.
The conditions of test [6]: cited from earlier work.
The conditions of test [7]: cited from earlier work. The source holds these as a separate data set.

SMILES strings stand for the structures. Where a name gives a salt, the structure may show the parent alone. Read-outs that look alike come from different tables or passages of the source.

T1 sequence (P28223 whole entry): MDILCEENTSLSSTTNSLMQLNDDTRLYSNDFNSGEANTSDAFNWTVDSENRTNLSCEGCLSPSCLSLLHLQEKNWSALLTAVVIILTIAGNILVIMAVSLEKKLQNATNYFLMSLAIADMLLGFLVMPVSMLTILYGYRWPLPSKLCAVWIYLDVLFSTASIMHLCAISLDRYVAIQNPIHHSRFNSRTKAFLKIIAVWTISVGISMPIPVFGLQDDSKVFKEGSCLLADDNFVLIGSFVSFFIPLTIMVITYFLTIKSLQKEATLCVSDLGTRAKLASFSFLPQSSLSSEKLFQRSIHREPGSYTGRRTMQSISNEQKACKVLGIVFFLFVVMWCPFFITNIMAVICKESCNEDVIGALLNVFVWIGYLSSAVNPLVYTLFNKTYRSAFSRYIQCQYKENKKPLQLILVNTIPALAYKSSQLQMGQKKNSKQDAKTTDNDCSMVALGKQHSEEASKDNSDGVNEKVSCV

Consider `CC(N)CN1CCc2ccc(Cl)cc21` (racemic) [Example 1, (RS)-1-(6-Chloroindolin-1-yl)-2-propylamine Hydrochloride], for which the “time for which significant pharmacological efficacy is maintained (5-HT2C syndrome)” value in the test with 5-HT2C syndrome was “at least 180 minutes”. Besides, the inhibition constant (Ki) (in general, a dissociation constant, usually derived from enzyme kinetics or from competition with a known ligand) at 5-HT2A receptor [1] was found to be 405 nM; at 5-HT2C receptor [2] it was 357 nM; at human 5-HT2B receptors, 113 nM.

With `C[C@H](N)CN1CCc2ccc(Br)cc21` [Example 12], the inhibition constant Ki at 5-HT2A receptor [1] amounted to 1090 nM; at 5-HT2C receptor [2], 77 nM; at human 5-HT2B receptors, 42 nM. Further, the figures for the EC50 on 5-HT2C receptor [3] and on 5-HT2A receptor [4] were 230 nM and 2410 nM, respectively. Further, the Emax stood at 59% on 5-HT2C receptor [3] and 49% on 5-HT2A receptor [4].

Regarding `NCCN1CCc2ccc(Br)cc21` [Example 50, 2-(6-Bromoindolin-1-yl)-1-ethylamine Fumarate], the Ki at 5-HT2A receptor [1] ([125I]-DOI, CHO cell line, read-out: Ki (2A)) is 332 nM; at 5-HT2C receptor [2] ([3H]-5-HT, CHO cell line, read-out: Ki (2C)) it was 61 nM; on human 5-HT2B receptors ([3H]-5-HT, human receptor, CHO cell line, read-out: Ki (2B)) it was 159 nM. Moreover, the Emax was 78% at 5-HT2C receptor [3] and 25% at 5-HT2A receptor [4]. The EC50 (in general, the concentration at which the effect is half-maximal) on 5-HT2C receptor [3] (FLIPR, CHO cells, Fluo-3-AM, read-out: h5-HT2C EC50) came out at 38 nM; at 5-HT2A receptor [4] (FLIPR, CHO cells, Fluo-3-AM, read-out: h5-HT2A EC50), 4080 nM.

As to `Clc1cccc(N2CCNCC2)c1` [mCPP, m-chlorophenylpiperazine], in the test on 5-HT2C receptor [5], the “anorectic action in 5-HT2C receptor knockout mutant mice” value is “absent”. Besides, the “appearance of the behavioural satiety sequence” value in test [6] (rat, in vivo) was “accelerate the appearance of the behavioural satiety sequence”. Moreover, the “food intake in rats” value in test [6] (rats) is “reduce food intake”. Further, the “appetite and body weight of obese subjects” value in test [7] (obese male and female subjects, subchronic treatment for a 14 day period) was “decreased the appetite and body weight”. The “food intake in female volunteers” value in [7] (single dose, female volunteers) is on record as “decreased food intake”.

The values above are taken from patent US6380238B1, “Indoline derivatives as 5-HT2B and or 5-HTC receptor ligands” (Vernalis Research Limited, priority 1998, dated 2002).
